Data: ChEMBL document CHEMBL4270545, “Design, synthesis and biological evaluation of 3-piperazinecarboxylate sarsasapogenin derivatives as potential multifunctional anti-Alzheimer agents” (2018)
The source made the active and inactive calls. The rule behind the calls is not given here.

Experiments:
PC-12 [1] = assay: Neuroprotective activity against H2O2-induced cytotoxicity in rat PC12 cells assessed as cell viability at 10 uM after 24 hrs by MTT assay relative to control; assay type: functional; settings: for viability at 10 µM: PC-12, 24 h, read-out: Activity
RAW264.7 = assay: Antiinflammatory activity in mouse RAW264.7 cells assessed as inhibition of LPS-induced nitric oxide production at 10 uM preincubated for 30 mins followed by LPS addition measured after 20 hrs by Griess assay relative to control; assay type: functional
Mus musculus = assay: Antialzheimer activity in cognitive deficit ICR mouse model assessed as reduction in amyloid beta (1 to 42)-induced spatial memory impairment at 6 mg/kg, ig qd administered for 7 consecutive days by Morris water maze test; assay type: functional, organism-based
PC-12 [2] = assay: Neuroprotective activity against amyloid beta (1 to 42)-induced cytotoxicity in rat PC12 cells assessed as cell viability at 1 uM after 48 hrs by MTT assay (reference value: 55.3 to 64.4%); assay type: functional; settings: PC-12, 48 h, read-out: Activity
PC-12 [3] = assay: Neuroprotective activity against amyloid beta (1 to 42)-induced cytotoxicity in rat PC12 cells assessed as cell viability at 10 uM after 48 hrs by MTT assay (reference value: 55.3 to 64.4%); assay type: functional; settings: PC-12, 48 h, read-out: Activity
PC-12 [4] = assay: Neuroprotective activity against H2O2-induced cytotoxicity in rat PC12 cells assessed as cell viability at 1 mM after 24 hrs by MTT assay relative to control; assay type: functional; settings: PC-12, 24 h, read-out: Activity
PC-12 [5] = assay: Neuroprotective activity against amyloid beta (1 to 42)-induced cytotoxicity in rat PC12 cells assessed as cell viability at 30 uM after 48 hrs by MTT assay (reference value: 55.3 to 64.4%); assay type: functional; settings: PC-12, 48 h, read-out: Activity

Row | Structure (SMILES) | viability at 10 µM (PC-12 [1]) | also measured
1 | C[C@H]1CC[C@@]2(OC1)O[C@H]1C[C@H]3[C@@H]4CC[C@@H]5C[C@@H](OC(=O)N6CCN(S(=O)(=O)c7ccccc7)CC6)CC[C@]5(C)[C@H]4CC[C@]3(C)[C@H]1[C@@H]2C | 20.8% | inhibition (RAW264.7): inactive
2 | CCCN1CCN(C(=O)O[C@H]2CC[C@@]3(C)[C@H](CC[C@@H]4[C@@H]3CC[C@]3(C)[C@@H]5[C@H](C[C@@H]43)O[C@]3(CC[C@H](C)CO3)[C@H]5C)C2)CC1 | 18.9% | –
3 | C[C@H]1CC[C@@]2(OC1)O[C@H]1C[C@H]3[C@@H]4CC[C@@H]5C[C@@H](OC(=O)N6CCNCC6)CC[C@]5(C)[C@H]4CC[C@]3(C)[C@H]1[C@@H]2C | 3.4% | –
4 | COc1cc(CN2CCN(C(=O)O[C@H]3CC[C@@]4(C)[C@H](CC[C@@H]5[C@@H]4CC[C@]4(C)[C@@H]6[C@H](C[C@@H]54)O[C@]4(CC[C@H](C)CO4)[C@H]6C)C3)CC2)ccc1O | 43.9% | Activity (Mus musculus): Active; viability at 1 µM (PC-12 [2]): 55.8%; viability at 10 µM (PC-12 [3]): 91.3%; inhibition at 10 µM (RAW264.7): 24.4%
5 | Cc1ccc(S(=O)(=O)N2CCN(C(=O)O[C@H]3CC[C@@]4(C)[C@H](CC[C@@H]5[C@@H]4CC[C@]4(C)[C@@H]6[C@H](C[C@@H]54)O[C@]4(CC[C@H](C)CO4)[C@H]6C)C3)CC2)cc1 | 29.5% | inhibition at 10 µM (RAW264.7): 4.8%
6 | COc1ccc(C(=O)N2CCN(C(=O)O[C@H]3CC[C@@]4(C)[C@H](CC[C@@H]5[C@@H]4CC[C@]4(C)[C@@H]6[C@H](C[C@@H]54)O[C@]4(CC[C@H](C)CO4)[C@H]6C)C3)CC2)cc1 | 17.7% | –
7 | CC(=O)N[C@@H](CS)C(=O)O [ACETYLCYSTEINE] | – | viability at 1000 µM (PC-12 [4]): 35.3%
8 | C[C@H]1CC[C@@]2(OC1)O[C@H]1C[C@H]3[C@@H]4CC[C@@H]5C[C@@H](OC(=O)N6CCN(C(=O)c7ccccc7)CC6)CC[C@]5(C)[C@H]4CC[C@]3(C)[C@H]1[C@@H]2C | 17.6% | –
9 | C[C@H]1CC[C@@]2(OC1)O[C@H]1C[C@H]3[C@@H]4CC[C@@H]5C[C@@H](OC(=O)N6CCN(S(=O)(=O)c7ccc(F)cc7)CC6)CC[C@]5(C)[C@H]4CC[C@]3(C)[C@H]1[C@@H]2C | 8.5% | –
10 | C[C@H]1CC[C@@]2(OC1)O[C@H]1C[C@H]3[C@@H]4CC[C@@H]5C[C@@H](OC(=O)N6CCN(Cc7ccc(O)cc7)CC6)CC[C@]5(C)[C@H]4CC[C@]3(C)[C@H]1[C@@H]2C | 5.8% | –
11 | CCS(=O)(=O)N1CCN(C(=O)O[C@H]2CC[C@@]3(C)[C@H](CC[C@@H]4[C@@H]3CC[C@]3(C)[C@@H]5[C@H](C[C@@H]43)O[C@]3(CC[C@H](C)CO3)[C@H]5C)C2)CC1 | 6.8% | –
12 | C[C@H]1CC[C@@]2(OC1)O[C@H]1C[C@H]3[C@@H]4CC[C@@H]5C[C@@H](OC(=O)N6CCN(C(=O)c7ccc(N)cc7)CC6)CC[C@]5(C)[C@H]4CC[C@]3(C)[C@H]1[C@@H]2C | – | Activity (PC-12 [1]): inactive
13 | C[C@H]1CC[C@@]2(OC1)O[C@H]1C[C@H]3[C@@H]4CC[C@@H]5C[C@@H](OC(=O)N6CCN(C(=O)c7ccc(Cl)cc7)CC6)CC[C@]5(C)[C@H]4CC[C@]3(C)[C@H]1[C@@H]2C | 20.2% | inhibition (RAW264.7): inactive
14 | COc1ccc(CN2CCN(C(=O)O[C@H]3CC[C@@]4(C)[C@H](CC[C@@H]5[C@@H]4CC[C@]4(C)[C@@H]6[C@H](C[C@@H]54)O[C@]4(CC[C@H](C)CO4)[C@H]6C)C3)CC2)cc1 | 33.1% | inhibition at 10 µM (RAW264.7): 1.3%
15 | C[C@H]1CC[C@@]2(OC1)O[C@H]1C[C@H]3[C@@H]4CC[C@@H]5C[C@@H](OC(=O)N6CCN(Cc7ccccc7)CC6)CC[C@]5(C)[C@H]4CC[C@]3(C)[C@H]1[C@@H]2C | 18.7% | –
16 | C[C@H]1CC[C@@]2(OC1)O[C@H]1C[C@H]3[C@@H]4CC[C@@H]5C[C@@H](O)CC[C@]5(C)[C@H]4CC[C@]3(C)[C@H]1[C@@H]2C [SARSASAPOGENIN] | 3.3% | viability at 10 µM (PC-12 [3]): 79.2%; viability at 30 µM (PC-12 [5]): 58.9%
17 | C[C@H]1CC[C@@]2(OC1)O[C@H]1C[C@H]3[C@@H]4CC[C@@H]5C[C@@H](OC(=O)N6CCN(Cc7ccccc7O)CC6)CC[C@]5(C)[C@H]4CC[C@]3(C)[C@H]1[C@@H]2C | 36.6% | viability at 1 µM (PC-12 [2]): 59.3%; viability at 10 µM (PC-12 [3]): 95.3%; inhibition at 10 µM (RAW264.7): 15.2%
18 | Cc1ccc(CN2CCN(C(=O)O[C@H]3CC[C@@]4(C)[C@H](CC[C@@H]5[C@@H]4CC[C@]4(C)[C@@H]6[C@H](C[C@@H]54)O[C@]4(CC[C@H](C)CO4)[C@H]6C)C3)CC2)cc1 | 19.2% | –
19 | C[C@H]1CC[C@@]2(OC1)O[C@H]1C[C@H]3[C@@H]4CC[C@@H]5C[C@@H](OC(=O)N6CCN(Cc7ccc(N(C)C)cc7)CC6)CC[C@]5(C)[C@H]4CC[C@]3(C)[C@H]1[C@@H]2C | 22% | inhibition at 10 µM (RAW264.7): 5.6%
20 | C[C@H]1CC[C@@]2(OC1)O[C@H]1C[C@H]3[C@@H]4CC[C@@H]5C[C@@H](OC(=O)N6CCN(Cc7ccc(C#N)cc7)CC6)CC[C@]5(C)[C@H]4CC[C@]3(C)[C@H]1[C@@H]2C | 26.4% | inhibition at 10 µM (RAW264.7): 21.6%
21 | C[C@H]1CC[C@@]2(OC1)O[C@H]1C[C@H]3[C@@H]4CC[C@@H]5C[C@@H](OC(=O)N6CCN(Cc7ccc(F)cc7)CC6)CC[C@]5(C)[C@H]4CC[C@]3(C)[C@H]1[C@@H]2C | 7.2% | –
